Data on 10 compounds can be found in patent publication US8809361B2, “2,3-dihydrofuro[2,3-c]pyridines, their use as modulators of the G-protein-coupled receptor GPR119 and pharmaceutical compositions thereof” (Boehringer Ingelheim International GmbH, priority 2012, dated 2014).

The target in the assay is T1, human GPR119 (Homo sapiens, UniProt Q8TDV5).
T1 construct: expression vector for human GPR119 cDNA (Acc. No. NP_848566); expressed in transfected cells
T1 sequence (Q8TDV5 1-335): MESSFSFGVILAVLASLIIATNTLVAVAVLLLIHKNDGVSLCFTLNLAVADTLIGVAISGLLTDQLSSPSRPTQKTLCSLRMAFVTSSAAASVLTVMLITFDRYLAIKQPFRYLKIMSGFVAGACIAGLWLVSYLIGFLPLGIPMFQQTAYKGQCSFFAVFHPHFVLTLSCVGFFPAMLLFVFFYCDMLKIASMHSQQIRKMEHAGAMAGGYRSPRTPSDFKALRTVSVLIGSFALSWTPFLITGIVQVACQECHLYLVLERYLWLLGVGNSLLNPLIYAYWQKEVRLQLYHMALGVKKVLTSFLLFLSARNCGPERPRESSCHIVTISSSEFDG
The assay can be described thus: GPR119 activation / intracellular cAMP stimulation, AlphaScreen cAMP Assay in Min-6/hGPR119 cells. The assay is classed as cell-based. The note with it: MIN6 cells stably transfected with human GPR119, 45 minutes incubation at room temperature. The protocol: The compounds of formula I according to the invention modulate the activity of the G-protein-coupled receptor GPR119. The effect of the compounds on the activation of GPR119 and on the stimulation of intracellular cAMP concentration is determined using the AlphaScreen cAMP Assay Kit (Cat. No. #6760625R) made by PerkinElmer.
MIN6 cells [Miyazaki J et al., Endocrinology. 1990 July; 127(1):126-32] are stably transfected with an expression vector for human GPR119 cDNA (Acc. No. NP_848566). Min-6/hGPR119 cells are cultured in DMEM, 10% FBS, 50 μM β-mercaptoethanol, 0.3 mg/mL Geniticin, 2 mM GlutaMAX at 37° C., 5% CO2. For the assay, the cells are seeded in Optiplates (white, 384-well, 160W-barcoded, TC, sterile with lid, Cat. No. #6007688 (Perkin Elmer); 10000 cells/well; 50 μL). The plates covered with lids are then incubated for 24 hours at 37° C., 5% CO2. After the medium is aspirated from the wells completely, 10 ill of the test compound are added, the compounds are diluted using stimulating buffer (140 mM NaCl, 3.6 mM KCl, 0.5 mM NaH2PO4, 0.5 mM MgSO4, 1.5 mM CaCl2, 10 mM Hepes, 5 mM NaHCO3; pH 7.4. 0.5 mM IBMX and 0.1% BSA, the final DMSO concentration is 1%). After 45 minutes incubation at room temperature (approx. 20° C.), the cAMP concentrations are determined using the AlphaScreen cAMP Assay Kit (Cat. No. #6760625R from PerkinElmer).
A general note: Alpha assays give light when donor and acceptor beads are brought close together.
For `CC(C)c1noc(N2CCC3(CC2)CC2(Cc4cc(C5=CCN(S(C)(=O)=O)CC5)ncc4O2)C3)n1` [Example 23, 1″-(3-Isopropyl-[1,2,4]oxadiazol-5-yl)-5-(1-methanesulfonyl-1,2,3,6-tetrahydro-pyridin-4-yl)-dispiro[2,3-dihydrofuro[2,3-c]pyridine-2,1′-cyclobutane-3′,4″-piperidine]], the EC50 (usually the concentration giving half of the maximal effect) was 12 nM.
To `CCCc1noc(N2CCC3(CC2)CC2(Cc4cc(C5=CCN(S(C)(=O)=O)CC5)ncc4O2)C3)n1` [Example 24, 5-(1-Methanesulfonyl-1,2,3,6-tetrahydro-pyridin-4-yl)-1″-(3-n-propyl-[1,2,4]oxadiazol-5-yl)-dispiro[2,3-dihydrofuro[2,3-c]pyridine-2,1′-cyclobutane-3′,4″-piperidine]] belongs 10 nM; to `CC(C)c1nc(N2CCC3(CC2)CC2(Cc4cc(C5=CCN(S(C)(=O)=O)CC5)ncc4O2)C3)no1` [Example 25, 1″-(5-Isopropyl-[1,2,4]oxadiazol-3-yl)-5-(1-methanesulfonyl-1,2,3,6-tetrahydro-pyridin-4-yl)-dispiro[2,3-dihydrofuro[2,3-c]pyridine-2,1′-cyclobutane-3′,4″-piperidine]], 5 nM.
Regarding `CCCc1nc(N2CCC3(CC2)CC2(Cc4cc(C5=CCN(S(C)(=O)=O)CC5)ncc4O2)C3)no1` [Example 26, 5-(1-Methanesulfonyl-1,2,3,6-tetrahydro-pyridin-4-yl)-1″-(3-n-propyl-[1,2,4]oxadiazol-3-yl)-dispiro[2,3-dihydrofuro[2,3-c]pyridine-2,1′-cyclobutane-3′,4″-piperidine]], a half-maximal effect (EC50) was put at 8 nM.
To `C[C@H](OC(=O)N1CCC2(CC1)CC1(Cc3cc(C4=CCN(S(C)(=O)=O)CC4)ncc3O1)C2)C(F)(F)F` [Example 27, 1″-[(S)-2,2,2-Trifluoro-1-methyl-ethyloxycarbonyl]-5-(1-methanesulfonyl-1,2,3,6-tetrahydro-pyridin-4-yl)-dispiro[2,3-dihydrofuro[2,3-c]pyridine-2,1′-cyclobutane-3′,4″-piperidine]] belongs 4 nM; to `CCc1cnc(N2CCC3(CC2)CC2(Cc4cc(C5=CCN(S(C)(=O)=O)CC5)ncc4O2)C3)nc1` [Example 28, 1″-(5-Ethyl-pyrimidin-2-yl)-5-(1-methanesulfonyl-1,2,3,6-tetrahydro-pyridin-4-yl)-dispiro[2,3-dihydrofuro[2,3-c]pyridine-2,1′-cyclobutane-3′,4″-piperidine]], 11 nM; to `CSc1ccc(-c2cc3c(cn2)OC2(C3)CC3(CCN(C(=O)OC(C)(C)C)CC3)C2)c(C#N)c1` [Example 30, 5-(2-Cyano-4-methylsulfanyl-phenyl)-1″-tert-butoxycarbonyl-dispiro[2,3-dihydrofuro[2,3-c]pyridine-2,1′-cyclobutane-3′,4″-piperidine]], 14 nM.
To `CC(C)(C)OC(=O)N1CCC2(CC1)CC1(Cc3cc(-c4ccc(S(C)(=O)=O)cc4C#N)ncc3O1)C2` [Example 31, 5-(2-Cyano-4-methylsulfonyl-phenyl)-1″-tert-butoxycarbonyl-dispiro[2,3-dihydrofuro[2,3-c]pyridine-2,1′-cyclobutane-3′,4″-piperidine]] belongs 5 nM.
To `CS(=O)(=O)N1CC=C(c2cc3c(cn2)OC2(C3)CC3(CCN(c4ncc(C(F)(F)F)cn4)CC3)C2)CC1` [Example 32, 5-(1-Methanesulfonyl-1,2,3,6-tetrahydro-pyridin-4-yl)-1″-(5-trifluoromethyl-pyrimidin-2-yl)-dispiro[2,3-dihydrofuro[2,3-c]pyridine-2,1′-cyclobutane-3′,4″-piperidine]] belongs 6 nM.
Consider `C[C@@H](OC(=O)N1CCC2(CC1)CC1(Cc3cc(C4=CCN(S(C)(=O)=O)CC4)ncc3O1)C2)C(F)(F)F` [Example 33, 5-(1-Methanesulfonyl-1,2,3,6-tetrahydro-pyridin-4-yl)-1″-[(R)-2,2,2-trifluoro-1-methyl-ethyloxycarbonyl]-dispiro[2,3-dihydrofuro[2,3-c]pyridine-2,1′-cyclobutane-3′,4″-piperidine]], for which the EC50 was found to be 8 nM.
